This passage reports IC50 results from ChEMBL document CHEMBL3639068, “Small molecule inhibitors of Plasmodium falciparum dihydroorotate dehydrogenase” (2014).

A value given as a limit tells only on which side of the number the result lay.

Assay [1] has as its target Dihydroorotate dehydrogenase (quinone), mitochondrial (Homo sapiens, UniProt Q02127). Description: (§1) Enzymatic Assays: Type 2 DHODH activity was monitored with either the direct assay measuring the formation of orotate or via a chromogen reduction assay using DCIP. Although the extinction coefficient and absorption wavelength are preferable for the chromogen reduction assay, the […] electron acceptor DCIP can be utilized by DHODH as the final electron acceptor in lieu of CoQn when the endogenous substrate is at a low concentration. As such, the direct assay was used to measure the binding affinity of pfDHODH to CoQD and L-DHO. The enzymatic reaction was performed by varying the L-DHO concentration (1-400 μM) or CoQD concentration (1-200 μM) while keeping the other substrate constant and in excess. Inhibition of DHODH by small molecules was evaluated using the chromogen based assay with a final substrate concentration of 200 μM L-DHO, 18 μM CoQD, and 100 μM DCIP, unless otherwise noted.

For assay [2], the target named is T1, Dihydroorotate dehydrogenase (fumarate) (Saccharomyces cerevisiae S288c, UniProt P28272).
T1 sequence (P28272 whole entry): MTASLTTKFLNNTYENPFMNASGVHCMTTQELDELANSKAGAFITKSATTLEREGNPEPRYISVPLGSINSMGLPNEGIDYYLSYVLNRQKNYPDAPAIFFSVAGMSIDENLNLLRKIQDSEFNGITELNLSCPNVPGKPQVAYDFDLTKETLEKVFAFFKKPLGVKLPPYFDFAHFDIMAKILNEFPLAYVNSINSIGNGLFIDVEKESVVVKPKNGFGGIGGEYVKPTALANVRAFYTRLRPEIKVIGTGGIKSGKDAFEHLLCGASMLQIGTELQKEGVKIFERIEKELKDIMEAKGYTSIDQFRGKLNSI
The description is as §1.

For assay [3], the target named is T2, Dihydroorotate dehydrogenase, mitochondrial, putative (Plasmodium vivax (strain Salvador I), UniProt A5K1N1).
T2 sequence (A5K1N1 whole entry): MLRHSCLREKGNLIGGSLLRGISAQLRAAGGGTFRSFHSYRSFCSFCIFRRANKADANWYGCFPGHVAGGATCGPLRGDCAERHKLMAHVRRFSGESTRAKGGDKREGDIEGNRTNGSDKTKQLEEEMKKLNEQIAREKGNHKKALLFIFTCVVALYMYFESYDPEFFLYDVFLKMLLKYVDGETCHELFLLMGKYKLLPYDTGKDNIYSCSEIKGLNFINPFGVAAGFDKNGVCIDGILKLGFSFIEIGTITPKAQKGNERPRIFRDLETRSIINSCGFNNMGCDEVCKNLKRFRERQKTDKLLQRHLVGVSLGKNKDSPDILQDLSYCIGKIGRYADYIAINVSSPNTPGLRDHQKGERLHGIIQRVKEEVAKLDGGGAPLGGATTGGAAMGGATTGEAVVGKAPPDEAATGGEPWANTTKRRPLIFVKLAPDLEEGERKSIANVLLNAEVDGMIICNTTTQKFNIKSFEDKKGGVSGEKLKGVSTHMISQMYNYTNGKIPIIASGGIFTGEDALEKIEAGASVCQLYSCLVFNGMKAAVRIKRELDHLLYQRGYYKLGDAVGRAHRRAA
Described as §1.

Chain of Dihydroorotate dehydrogenase (quinone), mitochondrial (Q02127 whole entry): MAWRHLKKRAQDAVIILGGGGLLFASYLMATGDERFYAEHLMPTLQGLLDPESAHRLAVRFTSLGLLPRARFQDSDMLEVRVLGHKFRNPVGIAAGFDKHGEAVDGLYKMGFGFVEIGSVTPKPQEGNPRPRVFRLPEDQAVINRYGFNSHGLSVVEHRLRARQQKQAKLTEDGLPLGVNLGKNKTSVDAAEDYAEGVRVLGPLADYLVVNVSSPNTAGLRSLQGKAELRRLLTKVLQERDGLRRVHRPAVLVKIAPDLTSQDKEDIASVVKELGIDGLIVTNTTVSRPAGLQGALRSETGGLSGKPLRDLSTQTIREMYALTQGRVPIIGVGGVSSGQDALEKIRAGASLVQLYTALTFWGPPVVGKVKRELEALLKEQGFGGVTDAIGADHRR

As for `CCCNC(=O)c1ccc(N2CCN(C)CC2)s1`, the half-inhibitory concentration (IC50) in assay [1] is > 30 µM. Consider `Fc1cc(I)ccc1Nc1ccnc2cc(Cl)ccc12`, for which the results for the IC50 in assay [2], in assay [1] and in assay [3] were > 10 µM, > 30 µM and > 10 µM, respectively.

In the case of `Cc1ccccc1/C=C/c1cc(O)c2ccccc2n1`, the IC50 in assay [3] is 5.6 µM.

On to `CCCCCC1CCCc2c1nc1ccccc1c2O` (configuration not stated), for which the IC50 in assay [2] is > 10 µM. Same read-out and setting: for `CCOC(=O)c1[nH]c(C)c(Cc2ccc(OCC)cc2)c1C` the value was > 10 µM.
